The text below walks through data of US20070043118A1, “Method of treating a subject suffering from degenerative disc disease using a nitric oxide synthase inhibitor” (Discogen, LLC, priority 2005, published 2007).

Assay [1] concerns patients with chronic intractable lower back pain and positive discography. Description: Biochemical injection treatment in human subjects (intradiscal injection; disability questionnaire and visual analogue pain scale). The assay is classed as in vivo. The following applies: intradiscal injection of 1 to 2 cc disc solution per involved disc. From the text:
Thirty patients with chronic intractable lower back pain and positive discography would participate in the study. These would be adult patients with chronic lower back pain who have been unresponsive or responded poorly to multiple previous methods of treatment, including physical therapy, multiple analgesics, injection therapy, laminectomies, fusions and intradiscal electrothermal annuloplasty (IDET) procedures. These patients would have positive discography at one or more lumbar levels and concordant pain provocation combined with morphologic disc abnormalities.
Using sterile techniques and United States Pharmacopeia-grade pharmaceuticals solutions containing the NOS inhibitors are prepared, specifically, one solution is prepared for each of GED, L-NAME, and L-NMMA. The “GED disc solution” consists of 0.3 mg/kg to 10 mg/kg GED by subject weight; 1.0 to 100 micromolar by concentration. The “L-NAME disc solution” consists of 1.0 mg/kg L-NAME by subject weight; 5.0 to 100 micromolar by concentration. The “L-NMMA disc solution” consists of 1.0 mg/kg L0NMA by subject weight; 5.0 to 100 micromolar by concentration. These concentrations are derived based on solubility and tolerance characteristics of the constituents. These are mixed with 33% nonionic contrast and 33% of 50% dextrose at the time of injection. A total of 1 to 2 cc of each solution is injected into each involved disc. All solutions are tested on separate patients. Injection promptly terminates if there is any leakage of contrast into the epidural space. Zygapophyseal joint injections are performed after fluroscopic confirmation of correct needle placement using intra-articular contrast and are performed at the same levels as the disc injections.
To avoid patient discomfort, the first series of injections are performed at the time of diagnostic discography. An intradiscal injection of 1 to 2 cc is used at each involved disc level. The levels are determined by discography. This is combined with injection of the zygapophyseal joints at the painful disc level(s) with the modified solution mixture as described above. […]

Assay [2] relates to disc tissue obtained from human subjects. The following applies: in vitro; cited from earlier work.

Consider `N=C(N)NCCSSCCNC(=N)N` [GED, guanidinoethyldisulfide], for which the “treatment outcome: pain and disability before and after treatment (disability questionnaire 0-24, visual analogue pain scale 0-10)” value in assay [1] is “effective in treating the patients and providing symptomatic relief”.

For the molecule `COC(=O)[C@@H](N)CCCNC(=N)N[N+](=O)[O-]` [L-NAME, nitro-L-arginine methyl ester], the “treatment outcome: pain and disability before and after treatment (disability questionnaire 0-24, visual analogue pain scale 0-10)” value in assay [1] is “effective in treating the patients and providing symptomatic relief”.

Consider `[H]/N=C(\NC)NCCC[C@H](N)C(=O)O` [L-NMMA, N-monomethyl-L-arginine], for which the “level of NO present in disc tissue” value in assay [2] was “reduce the level of NO present”. Moreover, the “treatment outcome: pain and disability before and after treatment (disability questionnaire 0-24, visual analogue pain scale 0-10)” value in assay [1] was “effective in treating the patients and providing symptomatic relief”.
